Measured values published in patent US20050107616A1, “Alpha-ketoamide derivatives as cathepsin k inhibitors” (priority 2001, published 2005).

target: T1, human cathepsin K (Homo sapiens, UniProt P43235); assay: Cathepsin K inhibition assay, fluorogenic substrate Cbz-Phe-Arg-AMC, progress curve method; format: biochemical; conditions: Table 1; human recombinant enzyme, pH 5.5, 30° C., 10 μM substrate; read-out: hCat K Ki
T1 construct: The proform of cathepsin K was converted to mature cathepsin K by brief exposure to pH 4; made in house; host or cells: baculovirus; Trichoplusia ni High Five cells (virus raised in Sf-9)
T1 sequence (P43235 115-329): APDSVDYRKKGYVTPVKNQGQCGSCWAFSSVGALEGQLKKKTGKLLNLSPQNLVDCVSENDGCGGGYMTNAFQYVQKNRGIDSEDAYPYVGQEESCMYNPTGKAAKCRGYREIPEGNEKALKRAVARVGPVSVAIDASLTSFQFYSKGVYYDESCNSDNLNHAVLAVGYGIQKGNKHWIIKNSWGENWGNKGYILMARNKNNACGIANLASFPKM
Protocol: All assays for cathepsin K were carried out with human and rat recombinant enzyme. Assays for cathepsins S Et V were also carried out with human recombinant enzyme. Assays for human cathepsins B. H. and L were carried out with enzyme, purchased from Athens Research and Technology, Inc., prepared from human liver tissue. […] A stock substrate solution of Cbz-Phe-Arg-AMC was prepared at a concentration of 50 mM in dimethyl sulfoxide. This substrate was diluted into the assay for a final substrate concentration of 10 μM in the rat cathepsin K, human cathepsin K, and human cathepsin B assays; a final substrate concentration of 5 μM in the human cathepsin L assay; and a final substrate concentration of 2 μM in the human cathepsin V assay.
All assays contained 10% dimethyl sulfoxide. […] All assays were conducted at 30° C. Product fluorescence (excitation at 360 nm; emission at 440 nm, (except cathepsin H which used excitation at 340 nm; emission at 420 nm)) was monitored with a PerSeptive Biosystems Cytofluor II fluorescence plate reader. Product progress curves were generated over 2.3 h monitoring the formation of 7-amino-4-methylcoumarin product (or β-naphthalamide for cathepsin H).
Two liters of Spodoptera frugiperda (Sf-9) cells (ATCC) were grown in Grace's Supplemented medium (Life Technologies) supplemented with 2 g/L glucose, 10% a fetal bovine serum (HyClone) and 0.10% pluronic F-68 (Life Technologies). […] The cells continued to grow for 72 h post-infection, before the virus was harvested by centrifugation at 1400× g for 30 min.
One and one-half liters of Trichoplusia ni (T. ni) High Five (TM) cells [JRH Biosciences, Woodland, Calif. […] Media were separated from cells at a rate of 1 L/min using the Centritech 100 (TM) continuous-flow centrifuge (DuPont) operating at 200× g.
Protein Purification: Media (human and rat) were filtered through a Whatman 3 filter, and then loaded onto a 25 mL Poros HS II (26 mm×47 mm) cation exchange column equilibrated in 25 mM sodium acetate at pH 5.5 (equilibration buffer). The column was washed until the absorbance reached the baseline value, and then the protein was eluted with a linear gradient from 0-2 M sodium chloride in the equilibration buffer. Column fractions were analyzed by SDS-PAGE, N-terminal sequencing, and mass spectrometry. Fractions containing the proform of cathepsin K were pooled and frozen at −80° C. The proform was concentrated in an Amicon Centriprep 10 and fractionated with a Superdex 75 column (26 mm×600 mm, Pharmacia) equilibrated in 400 mM sodium chloride, 25 mM sodium acetate at pH 5.5.
Cathepsin K Activation: The proform of cathepsin K was converted to mature cathepsin K by brief exposure to pH 4 in the presence of 5 mM L-cysteine. Typically, 5 mM L-cysteine was added to 10 mL of approximately 1 mg/mL procathepsin K. One mL of this solution was diluted ten-fold into 450 mM sodium acetate at pH 4.0 containing 5 mM L-cysteine. This solution was reacted at 23° C. for 2 min before neutralization with 2 mL 1.8 M sodium acetate at pH 6.0. The neutralized sample was added to the remaining 9 mL of procathepsin K. The mixture was incubated at 4° C. for 2-3 days. The activated cathepsin K was chromatographed on a Poros HS II column as described above.
Potential inhibitors were evaluated using the progress curve method. Assays were carried out in the presence of variable concentrations of test compound. Reactions were initiated by addition of buffered solutions of inhibitor and substrate to enzyme. Data analysis was conducted according to one of two procedures depending on the appearance of the progress curves in the presence of inhibitors. […] Ki values were calculated from IC50 values using equation 2 assuming a competitive model. [formula]

| SMILES | Ki [nM] |
| --- | --- |
| CCCC[C@H](NC(=O)O[C@H](Cc1nnc(-c2ccc(C(F)(F)F)cc2)o1)C(C)(C)C)C(=O)C(=O)N[C@H](C)c1ccccc1 [Example 17] | 0.01 to 1 |
| CCCC[C@H](NC(=O)O[C@@H](Cc1nnc(-c2ccccc2)o1)C(C)(C)C)C(=O)C(=O)N[C@H](C)c1ccccc1 [Example 16, (1S)-2,2-dimethyl-1-[(5-phenyl-1,3,4-oxadiazol-2-yl)methyl]propyl (1S)-1-(oxo{[(1R)-1-phenylethyl]amino}acetyl)pentylcarbamate] | 100 to 10000 |
| CCCC[C@H](NC(=O)O[C@H](Cc1nnc(-c2ccc(F)cc2)o1)C(C)(C)C)C(=O)C(=O)NCc1ccncc1 [Example 24, (1R)-1-{[5-(4-fluorophenyl)-1,3,4-oxadiazol-2-yl]methyl}-2,2-dimethylpropyl(1S)-1-{oxo[(4-pyridinylmethyl)amino]acetyl}pentylcarbamate] | 1 to 100 |
| CCCC[C@H](NC(=O)O[C@@H](Cn1ccc(-c2ccc(C(F)(F)F)cc2)n1)C(C)(C)C)C(=O)C(=O)Nc1ccn[nH]1 [Example 2, (1R)-2,2-dimethyl-1-({3-[4-(trifluoromethyl)phenyl]-1H-pyrazol-1-yl}methyl)propyl(1S)-1-[oxo(1H-pyrazol-3-ylamino)acetyl]pentylcarbamate] | 1 to 100 |
| CCCC[C@H](NC(=O)O[C@H](Cc1nnc(-c2ccccc2)o1)C(C)(C)CC)C(=O)C(=O)N[C@H](C)c1ccccc1 [Example 8, (1R)-2,2-dimethyl-1-[(5-phenyl-1,3,4-oxadiazol-2-yl)methyl]butyl (1S)-1-(oxo{[(1R)-1-phenylethyl]amino}acetyl)pentylcarbamate] | 1 to 100 |
| CCCC[C@H](NC(=O)O[C@@H](c1nnc(-c2ccc(C(F)(F)F)cc2)o1)C(C)(C)C)C(=O)C(=O)Nc1ccn[nH]1 [Example 40, (1R)-2,2-dimethyl-1-{5-[4-(trifluoromethyl)phenyl]-1,3,4-oxadiazol-2-yl}propyl(1S)-1-[oxo(1H-pyrazol-5-ylamino)acetyl]pentylcarbamate] | 100 to 10000 |
| CCCC[C@H](NC(=O)O[C@@H](Cc1nnc(-c2ccccc2)o1)C(C)C)C(=O)C(=O)N[C@H](C)c1ccccc1 [Example 11, (1S)-2-methyl-1-[(5-phenyl-1,3,4-oxadiazol-2-yl)methyl]propyl(1S)-1-(oxo{[(1R)-1-phenylethyl]amino}acetyl)pentylcarbamate] | 100 to 10000 |
| CCCC[C@H](NC(=O)O[C@H](c1nc2ccccc2s1)C(C)(C)C)C(=O)C(=O)Nc1ccn[nH]1 [Example 31, (1S)-1-(1,3-benzothiazol-2-yl)-2,2-dimethylpropyl(1S)-1-[oxo(1H-pyrazol-5-ylamino)acetyl]pentylcarbamate] | 0.01 to 1 |
| CCCC[C@H](NC(=O)O[C@H](Cn1ccc(-c2cccnc2)n1)C(C)(C)C)C(=O)C(=O)Nc1nccs1 [Example 33, (1S)-2,2-dimethyl-1-{[3-(3-pyridinyl)-1H-pyrazol-1-yl]methyl}propyl(1S)-1-[oxo(1,3-thiazol-2-ylamino)acetyl]pentylcarbamate] | 0.01 to 1 |
| CCCC[C@H](NC(=O)O[C@H](Cc1nnc(-c2ccccc2)o1)C(C)(C)C)C(=O)C(=O)N[C@H](C)c1ccccc1 [Example 15, (1R)-2,2-dimethyl-1-[(5-phenyl-1,3,4-oxadiazol-2-yl)methyl]propyl(1S)-1-(oxo{[(1R)-1-phenylethyl]amino}acetyl)pentylcarbamate] | 0.01 to 1 |
| CCCC[C@H](NC(=O)O[C@@H](c1nc2ccccc2s1)C(C)(C)C)C(=O)C(=O)Nc1ccn[nH]1 [Example 32, (1R)-1-(1,3-benzothiazol-2-yl)-2,2-dimethylpropyl(1S)-1-[oxo(1H-pyrazol-5-ylamino)acetyl]pentylcarbamate] | 100 to 10000 |
| CCCC[C@H](NC(=O)O[C@H](Cn1ccc(-c2ccc(C(F)(F)F)cc2)n1)C(C)(C)C)C(=O)C(=O)Nc1nccs1 [Example 46, (1S)-2,2-dimethyl-1-({3-[4-(trifluoromethyl)phenyl]-1H-pyrazol-1-yl}methyl)propyl(1S)-1-[oxo(1,3-thiazol-2-ylamino)acetyl]pentylcarbamate] | 0.01 to 1 |
| CCCC[C@H](NC(=O)O[C@H](Cc1nnc(-c2ccc(F)cc2)o1)C(C)(C)C)C(=O)C(=O)Nc1ccn[nH]1 [Example 23, (1R)-1-{[5-(4-fluorophenyl)-1,3,4-oxadiazol-2-yl]methyl}-2,2-dimethylpropyl(1S)-1-[oxo(1H-pyrazol-5-ylamino)acetyl]pentylcarbamate] | 0.01 to 1 |
| CCCC[C@H](NC(=O)O[C@H](Cc1nnc(-c2ccc(F)cc2)o1)C(C)(C)C)C(=O)C(=O)Nc1ccccn1 [Example 21, (1R)-1-{[5-(4-fluorophenyl)-1,3,4-oxadiazol-2-yl]methyl}-2,2-dimethylpropyl(1S)-1-[oxo(2-pyridinylamino)acetyl]pentylcarbamate] | 100 to 10000 |
| CCCC[C@H](NC(=O)O[C@@H](Cc1nnc(-c2ccccc2)o1)C(C)(C)CC)C(=O)C(=O)N[C@H](C)c1ccccc1 [Example 9, (1S)-2,2-dimethyl-1-[(5-phenyl-1,3,4-oxadiazol-2-yl)methyl]butyl(1S)-1-(oxo{[(1R)-1-phenylethyl]amino}acetyl)pentylcarbamate] | 100 to 10000 |
| CCCC[C@H](NC(=O)O[C@H](Cn1cnc(-c2ccc(F)cc2)c1)C(C)(C)C)C(=O)C(=O)N[C@H](C)c1ccccc1 [Example 6, (1S)-1-{[4-(4-fluorophenyl)-1H-imidazol-1-yl]methyl}-2,2-dimethylpropyl (1S)-1-(oxo{[(1R)-1-phenylethyl]amino}acetyl)pentylcarbamate] | 0.01 to 1 |
| CCCC[C@H](NC(=O)O[C@H](Cn1cnc(-c2ccc(C(F)(F)F)cc2)c1)C(C)(C)C)C(=O)C(=O)Nc1nccs1 [Example 51, (1S)-2,2-dimethyl-1-({4-[4-(trifluoromethyl)phenyl]-1H-imidazol-1-yl}methyl)propyl(1S)-1-[oxo(1,3-thiazol-2-ylamino)acetyl]pentylcarbamate] | 1 to 100 |
| CCCC[C@H](NC(=O)O[C@H](Cn1ccc(-c2ccc(C(F)(F)F)cc2)n1)C(C)(C)C)C(=O)C(=O)NCc1ccno1 [Example 36, (1S)-2,2-dimethyl-1-({3-[4-(trifluoromethyl)phenyl]-1H-pyrazol-1-yl}methyl)propyl(1S)-1-[[(5-isoxazolylmethyl)amino](oxo)acetyl]pentylcarbamate] | 1 to 100 |
| CCCC[C@H](NC(=O)O[C@H](Cn1ccc(C(F)(F)F)n1)C(C)(C)C)C(=O)C(=O)Nc1ccn[nH]1 [Example 29, (1S)-2,2-dimethyl-1-{[3-(trifluoromethyl)-1H-pyrazol-1-yl]methyl}propyl(1S)-1-[oxo(1H-pyrazol-5-ylamino)acetyl]pentylcarbamate] | 0.01 to 1 |
| CCCC[C@H](NC(=O)O[C@H](COc1ccc(C(N)=O)cc1)C(C)(C)C)C(=O)C(=O)Nc1ccn[nH]1 [Example 48, (1S)-1-{[4-(aminocarbonyl)phenoxy]methyl}-2,2-dimethylpropyl(1S)-1-[oxo(1H-pyrazol-5-ylamino)acetyl]pentylcarbamate] | 0.01 to 1 |
| CCCC[C@H](NC(=O)O[C@H](c1nnc(-c2cccnc2)o1)C(C)(C)C)C(=O)C(=O)Nc1ccn[nH]1 [Example 52, (1S)-2,2-dimethyl-1-[5-(3-pyridinyl)-1,3,4-oxadiazol-2-yl]propyl(1S)-1-[oxo(1H-pyrazol-5-ylamino)acetyl]pentylcarbamate] | 0.01 to 1 |
